Earlier results as cited in US20230159622A1, “COLLAGEN MIMICS” (Wisconsin Alumni Research Foundation, priority 2006, published 2023).
Marks after values point to notes of the source that are not given here.

Conditions: based on the extrapolation of data from solutions containing trimethylamine N-oxide; literature reference

Tm (±1° C.) of triple helix, based on extrapolation: −6^a ° C.
Substance: (Pro-Pro-Gly)7
